The source of these data is PubChem BioAssay AID1996.

Values after ≈ are worked out from the molar mass of the structure shown.

For orientation: kinetic solubility means the concentration staying in solution when a stock, usually in DMSO, is diluted into the medium.

For this series the following is noted: buffer; pH 7.4; 200.0 µM.
`CC(=O)Nc1ccc(SC(C)C(=O)NC2CCCC2)cc1` (stereo unspecified): the solubility (kinetic) was more than 46 µg/mL.

In turn, `O=c1oc2ccccc2n1Cc1ccccc1` displayed a solubility (kinetic) of 8.6 µg/mL (≈ 38.2 µM).

In turn, `Cc1ccc(N)cc1S(=O)(=O)N(C)C` gave a solubility (kinetic) of more than 32.1 µg/mL.

With `O=C(NN1CCOCC1)c1cc(Cl)ccc1Cl`, the kinetic solubility is more than 41.3 µg/mL.

In turn, `COC(=O)c1cc(NC(=O)c2ccc(F)cc2)cc(C(=O)OC)c1` came in with a kinetic solubility of 4.9 µg/mL (≈ 14.8 µM).

For the compound `Nc1ccccc1C(=O)NC12CC3CC(CC(C3)C1)C2`, the kinetic solubility came out at 28.7 µg/mL (≈ 106 µM). Against the preceding compound, the solubility kinetic is about 5.9-fold higher.

As to `O=C(CC(c1ccccc1)c1cc(Cl)ccc1O)NCCCN1CCOCC1` (stereo unspecified), the kinetic solubility was 59.2 µg/mL (≈ 147 µM). Compared with the last compound, the solubility kinetic is about 2.1-fold higher.

As for `CC(=O)c1sc(C(C)(C)C)cc1NC(=O)c1ccccc1C(=O)O`, the kinetic solubility was more than 51.8 µg/mL.

Take `Cc1ccc(CN2CCCC(CO)(Cc3ccccc3C)C2)s1` (stereo unspecified): the kinetic solubility is 48.6 µg/mL (≈ 147 µM).

Regarding `O=C(O)c1ccc(/C=N/n2cc(-c3ccccc3)[nH]c2=S)cc1`, the solubility (kinetic) was more than 48.5 µg/mL.

Take `COc1cccc(/C=C/C(=O)N2CC(C)OC(C)C2)c1OC` (stereo unspecified): the solubility (kinetic) is more than 45.8 µg/mL.

For `Cc1cccc2cc(-c3nc4ccc(C(=O)O)cc4[nH]3)c(=O)oc12`, the solubility (kinetic) was 26.9 µg/mL (≈ 84 µM).

`COc1cccc(N2CCC(N3CCN(C)C(CCO)C3)CC2)c1` (stereo unspecified) showed a solubility (kinetic) of 48.4 µg/mL (≈ 145 µM). This solubility kinetic lies about 1.8-fold higher than the previous one.

In turn, `COc1ccc(S(=O)(=O)N2CCCCC2)cc1NC(=O)C1CC(=O)N(Cc2ccco2)C1` (stereo unspecified) gave a kinetic solubility of more than 69.2 µg/mL.

Compound `CCOC(=O)C1=C(C)NC(C)=C(C(=O)OCC)C1c1cccc(C)n1` displayed a kinetic solubility of 5.1 µg/mL (≈ 14.8 µM).

For the compound `CC1(C)Cc2nc(NC3CCCCC3)c(C#N)cc2CO1`, the solubility (kinetic) stood at 1.7 µg/mL (≈ 5.96 µM).

Regarding `Cc1cc(C)nc(SCC(=O)Nc2ccnc3ccccc23)n1`, the kinetic solubility is 6.6 µg/mL (≈ 20.3 µM). Against the preceding compound, the solubility kinetic is about 3.9-fold higher.

Take `c1cnc2c(c1)ccc1ncccc12`: the kinetic solubility was more than 27 µg/mL.

In the case of `CCOC(=O)C(=O)N1CCC(Cc2ccccc2)CC1`, the solubility (kinetic) is 35.8 µg/mL (≈ 130 µM).

`CC(C)(C)c1ccc(S(=O)(=O)NCc2ccccn2)cc1` gave a solubility (kinetic) of 44.1 µg/mL (≈ 145 µM).

`O=C(NCCCN1CCOCC1)c1ccc(Cl)c([N+](=O)[O-])c1` came in with a solubility (kinetic) of 45.2 µg/mL (≈ 138 µM).

`CC(NC(=O)CNC(=O)c1ccco1)c1ccccc1` (stereo unspecified) displayed a solubility (kinetic) of more than 40.8 µg/mL.

Compound `CC(C)n1cc(/C=C2/NC(=O)NC2=O)c2ccccc21` had a solubility (kinetic) of 0.7 µg/mL (≈ 2.6 µM).

`CCc1ccccc1N1CC(C(=O)N2Cc3ccccc3CC2C(N)=O)CC1=O` (stereo unspecified) displayed a kinetic solubility of more than 58.7 µg/mL.

The compound `C=Cn1cc[n+](CC(=O)c2ccc(Br)s2)c1.[Br-]` displayed a solubility (kinetic) of 53 µg/mL.

Consider `CC(C)NS(=O)(=O)c1ccc(OCC(=O)NC(C)c2ccccc2)cc1` (stereo unspecified), for which the solubility (kinetic) was determined as 53.1 µg/mL (≈ 141 µM). This solubility kinetic and that of the compound before are within 1.5-fold of each other.

Regarding `COc1ccc(O)c(/C=C(\C#N)C(=O)Nc2ccccn2)c1`, the kinetic solubility stood at 22.8 µg/mL (≈ 77.2 µM).

Regarding `CC(C)C(=O)Nc1csc(C(F)(F)F)c1-c1ccccc1`, the solubility (kinetic) came out at 12.8 µg/mL (≈ 40.8 µM).

`COc1ccc(CNC(=O)CN(C)CC(=O)Nc2ccccc2Br)cc1` returned a solubility (kinetic) of more than 63 µg/mL.

On to `COC(=O)c1ccc(NC(=O)c2cccc(NC(=O)c3ccccc3)c2)cc1`, for which the solubility (kinetic) stood at 0.9 µg/mL (≈ 2.4 µM).

Turning to `O.O=C([O-])c1ccn2c(C(=O)c3ccccc3)c(-c3ccccc3)cc2c1`, the solubility (kinetic) is more than 52.4 µg/mL.

`COc1ccc(N=C2NC(=O)/C(=C/c3ccco3)S2)cc1` yielded a kinetic solubility of 1.6 µg/mL (≈ 5.33 µM).

Regarding `COC(=O)c1ccc(S(=O)(=O)NC(C)(C)C)n1C`, the kinetic solubility turned out to be 40.2 µg/mL (≈ 147 µM).

Compound `O=C(NC(Cc1ccccc1)C(=O)NC1CC1)OCc1ccccc1` (stereo unspecified) returned a kinetic solubility of 11.5 µg/mL (≈ 34 µM).

Compound `Cc1cc(C(=O)NC2CCC(C)CC2)c(C)o1` (stereo unspecified) yielded a kinetic solubility of 12.6 µg/mL (≈ 53.5 µM).

In the case of `O=C(CSc1nncs1)NC1CCCCCCC1`, the solubility (kinetic) was more than 42.8 µg/mL.

For the compound `COc1ccc(C(=O)O)cc1S(=O)(=O)NCc1ccncc1`, the kinetic solubility is more than 48.4 µg/mL.

In the case of `Cc1ccc(C(=O)NC2(O)C(=O)c3ccccc3C2=O)cc1C`, the solubility (kinetic) is more than 46.4 µg/mL.

`COC(=O)C1CCN(C(=O)/C(C)=C\c2ccccc2)CC1` gave a kinetic solubility of 41 µg/mL (≈ 143 µM).

With `CN(C)c1ccc(/C=C/c2nc3ccccc3c(=O)[nH]2)cc1`, the kinetic solubility came out at 0.6 µg/mL (≈ 2.06 µM).

For `O=C(N1CCCCC1)C1(c2ccccc2)CCCCC1`, the solubility (kinetic) is 3.6 µg/mL (≈ 13.3 µM).

`Cc1ccc(CNC(=O)CCCc2c[nH]c3ccccc23)cc1` returned a kinetic solubility of 17.6 µg/mL (≈ 57.4 µM).

Consider `Cc1ccccc1Cn1cnc2c(oc3ccccc32)c1=O`, for which the kinetic solubility was 0.9 µg/mL (≈ 3.1 µM).

The compound `O=C(Nc1ccc(Cl)cc1Cl)c1csc(-c2cccnc2)n1` yielded a kinetic solubility of 1.6 µg/mL (≈ 4.57 µM).

The compound `CC(=O)c1c(C)[nH]c(C(=O)OCC(=O)Nc2cccnc2Cl)c1C` registered a solubility (kinetic) of more than 52.5 µg/mL.

`N#CC1(NC(=O)COC(=O)c2nccnc2N)CCCCC1` came in with a solubility (kinetic) of more than 45.5 µg/mL.

Turning to `COc1ccc(-c2cc(-c3ccc(O)cc3)nc(N)c2C#N)cc1`, the solubility (kinetic) was determined as 0.8 µg/mL (≈ 2.52 µM).

Turning to `Cc1ccc(C(=O)OCC(=O)NCCc2ccc(S(N)(=O)=O)cc2)o1`, the solubility (kinetic) was more than 55 µg/mL.

The compound `O=C(COc1ccc(C(=O)c2ccccc2)cc1)Nc1cccnc1` gave a kinetic solubility of more than 49.9 µg/mL.

In turn, `O=C(CN1C(=O)NC2(CCCC2)C1=O)N1CCN(c2ccccc2O)CC1` yielded a kinetic solubility of more than 55.9 µg/mL.

`O=C1OCC2=C1C(c1ccccc1)CC(=O)N2c1cccc(F)c1` (stereo unspecified) yielded a solubility (kinetic) of 44.3 µg/mL (≈ 137 µM).
